Like-named read-outs stand apart in the source and are kept apart here.
Experiments:
[1] = tested on: HCT-116 cell line; experiment: Anti-proliferative activity, Alamar Blue assay; type: cell-based; settings: Homo sapiens, read-out: IC50 against the HCT-116 cell line
Experimental: The anti-proliferative activities of compounds of the invention can be determined by measuring the ability of the compounds to inhibition of cell growth in a number of cell lines. Inhibition of cell growth is measured using the Alamar Blue assay (Nociari, M. M, Shalev, A., Benias, P., Russo, C. Journal of Immunological Methods 1998, 213, 157-167). The method is based on the ability of viable cells to reduce resazurin to its fluorescent product resorufin. For each proliferation assay cells are plated onto 96 well plates and allowed to recover for 16 hours prior to the addition of inhibitor compounds for a further 72 hours. At the end of the incubation period 10% (v/v) Alamar Blue is added and incubated for a further 6 hours prior to determination of fluorescent product at […]. In the case of the non-proliferating cell assay cells are maintained at confluence for 96 hour prior to the addition of inhibitor compounds for a further 72 hours. The number of viable cells is determined by Alamar Blue assay as before. In addition, any morphological changes are recorded. All cell lines can be obtained from ECACC (European Collection of cell Cultures).
In particular, compounds of the invention were tested against the HCT-116 cell line (ECACC Reference: 91091005) derived from human colon carcinoma.

[2] = molecular target: T1, CDK1/CyclinB (Homo sapiens, UniProt P06493); experiment: Activated CDK1/CyclinB kinase inhibitory activity assay; type: biochemical; settings: Example 11, read-out: IC50 in the CDK2 assay (stated under the CDK1/CyclinB assay, Example 11)
T1 construct: purchased Upstate Discovery
Experimental: (§1) Activated CDK2/CyclinA (Brown et al, Nat. Cell Biol., 1, pp 438-443, 1999; Lowe, E. D., et al Biochemistry, 41, pp 15625-15634, 2002) is diluted to 125 pM in 2.5× strength assay buffer (50 mM MOPS pH 7.2, 62.5 mM β-glycerophosphate, 12.5 mM EDTA, 37.5 mM MgCl2, […], 2.5 mM DTT, 2.5 mM sodium orthovanadate, 0.25 mg/ml bovine serum albumin), and 10 μl mixed with 10 μl of histone substrate mix (60 μl bovine histone H1 (Upstate Biotechnology, 5 mg/ml), 940 μl H2O, 35 μCi γ^33P-ATP) and added to 96 well plates along with 5 μl of various dilutions of the test compound in DMSO (up to 2.5%). The reaction is allowed to proceed for 2 to 4 hours before being stopped with an excess of ortho-phosphoric acid (5 μl at 2%).
(§2) γ^33P-ATP which remains unincorporated into the histone H1 is separated from phosphorylated histone H1 on a Millipore MAPH filter plate. The wells of the MAPH plate are wetted with 0.5% orthophosphoric acid, and then the results of the reaction are filtered with a Millipore vacuum filtration unit through the wells. Following filtration, the residue is washed twice with 200 μl of 0.5% orthophosphoric acid. Once the filters have dried, 20 μl of Microscint 20 scintillant is added, and then counted on a Packard Topcount for 30 seconds. The % inhibition of the CDK2 activity is calculated and plotted in order to determine the concentration of test compound required to inhibit 50% of the CDK2 activity (IC50).
CDK1/CyclinB assay.is identical to the CDK2/CyclinA above except that CDK1/CyclinB (Upstate Discovery) is used and the enzyme is diluted to 6.25 nM.

[3] = molecular target: Activated CDK2/CyclinA (Homo sapiens, UniProt P24941); experiment: Activated CDK2/CyclinA kinase inhibitory activity assay; type: biochemical; settings: Example 10
Experimental: as §1
as §2, with “The % inhibition of the CDK2 activity is calculated and plotted in order to determine the concentration of test compound required to inhibit 50% of the CDK2 activity (IC50).” left out

[4] = molecular target: T2, AuroraB (Homo sapiens, UniProt Q96GD4); experiment: Aurora B kinase assay (DELFIA); type: biochemical; settings: 15 μM ATP
T2 construct: purchased ProQinase
Experimental: Aurora activity was determined using a Dissociative Enhanced Lanthanide Fluoro Immuno Assay (DELFIA) with a GSK3-derived biotinylated peptide. The amount of phosphorylated peptide produced is quantified by means of a phospho-specific primary antibody and europium-labelled anti-rabbit IgG antibody using time-resolved fluorescence at λex=337 nm, λem=620 nm.
Assay reactions are set up in 96 well plates in a total reaction volume of 25 μl with 5 nM AuroraB (ProQinase), 3 μM Biotin-[…], 15 μM ATP and various dilutions of compound in 25 mM TRIS pH 8.5, 0.1 mg/ml BSA, 0.025% Surfact-Amps 20, 5 mM MgCl2, 1 mM DTT, & 2.5% DMSO. The reaction is allowed to proceed for 90 minutes at room temperature before stopping with 100 μl STOP buffer containing 100 mM EDTA, 0.05% Surfact-amps20 (Pierce) and 1× Blocker™ BSA in TBS (Pierce).
The detection step was carried out as described for AuroraA.

[5] = molecular target: GSK3β (human) (Homo sapiens, UniProt P49841); experiment: Inhibitory activity against Glycogen Synthase Kinase-3; type: biochemical
Experimental: GSK3β (human) is diluted to a 10× working stock in 50 mM Tris pH 7.5, 0.1 mM EGTA, 0.1 mM sodium vanadate, 0.1% β-mercaptoethanol, 1 mg/ml BSA. One unit equals the incorporation of 1 nmol of phosphate per minute phospho-glycogen synthase peptide 2 per minute.
In a final reaction volume of 25 μl, GSK3β (5-10 mU) is incubated with 8 mM MOPS 7.0, 0.2 mM EDTA, 20 μM […](p)EDEEE (phospho GS2 peptide), 10 mM MgAcetate and [γ-^33P-ATP] (specific activity approx 500 cpm/pmol, concentration as required). The reaction is initiated by the addition of Mg^2+[γ-^33P-ATP]. After incubation for 40 minutes at room temperature the reaction is stopped by the addition of 5 μl of a 3% phosphoric acid solution. 10 μl of the reaction is spotted onto a P30 filter mat and washed 3 times for 5 minutes in 50 mM phosphoric acid and once in methanol prior to drying and counting.

T1 sequence (P06493 whole entry): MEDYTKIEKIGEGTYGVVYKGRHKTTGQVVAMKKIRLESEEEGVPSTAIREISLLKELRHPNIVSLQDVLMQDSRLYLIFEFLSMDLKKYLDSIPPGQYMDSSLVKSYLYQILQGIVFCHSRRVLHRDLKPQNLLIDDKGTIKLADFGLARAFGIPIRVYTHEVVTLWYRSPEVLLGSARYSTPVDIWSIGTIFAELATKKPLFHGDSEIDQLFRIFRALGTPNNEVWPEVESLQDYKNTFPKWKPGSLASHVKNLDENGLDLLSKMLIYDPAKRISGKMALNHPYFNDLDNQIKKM
T1 sequence (P14635 whole entry partner): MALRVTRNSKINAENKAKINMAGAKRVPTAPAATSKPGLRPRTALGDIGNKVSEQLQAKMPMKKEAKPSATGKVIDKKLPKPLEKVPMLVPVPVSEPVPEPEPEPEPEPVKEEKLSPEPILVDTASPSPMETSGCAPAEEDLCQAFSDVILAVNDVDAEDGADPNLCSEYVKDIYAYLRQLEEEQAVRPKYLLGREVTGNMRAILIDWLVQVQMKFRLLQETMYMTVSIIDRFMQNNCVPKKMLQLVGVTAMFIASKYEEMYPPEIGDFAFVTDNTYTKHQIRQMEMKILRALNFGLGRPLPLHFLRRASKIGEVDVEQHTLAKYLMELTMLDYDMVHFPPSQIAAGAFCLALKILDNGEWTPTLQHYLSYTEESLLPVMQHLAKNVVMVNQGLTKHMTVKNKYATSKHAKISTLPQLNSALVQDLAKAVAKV
Sequence of GSK3β (human) (P49841 whole entry): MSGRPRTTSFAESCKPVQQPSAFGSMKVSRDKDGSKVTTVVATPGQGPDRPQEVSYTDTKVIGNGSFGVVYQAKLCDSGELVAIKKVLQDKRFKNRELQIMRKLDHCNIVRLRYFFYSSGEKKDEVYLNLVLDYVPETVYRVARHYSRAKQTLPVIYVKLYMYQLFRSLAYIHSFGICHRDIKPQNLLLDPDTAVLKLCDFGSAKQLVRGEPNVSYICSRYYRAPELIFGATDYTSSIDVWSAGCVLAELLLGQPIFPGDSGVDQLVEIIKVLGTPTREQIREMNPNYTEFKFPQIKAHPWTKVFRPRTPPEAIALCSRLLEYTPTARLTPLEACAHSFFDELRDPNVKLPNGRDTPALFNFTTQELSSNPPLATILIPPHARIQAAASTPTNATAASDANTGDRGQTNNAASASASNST
T2 sequence (Q96GD4 whole entry): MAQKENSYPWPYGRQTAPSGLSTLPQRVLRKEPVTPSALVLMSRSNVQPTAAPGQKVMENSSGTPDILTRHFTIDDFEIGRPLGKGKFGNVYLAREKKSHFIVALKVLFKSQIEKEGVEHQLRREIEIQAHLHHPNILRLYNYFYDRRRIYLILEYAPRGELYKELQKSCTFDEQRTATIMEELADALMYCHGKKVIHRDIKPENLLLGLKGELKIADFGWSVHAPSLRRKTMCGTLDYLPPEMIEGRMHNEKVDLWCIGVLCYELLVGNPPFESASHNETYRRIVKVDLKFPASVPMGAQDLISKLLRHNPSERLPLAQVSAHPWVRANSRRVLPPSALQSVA

Row | IC50 ([1]; HCT-116, 72 hours, Alamar Blue) [µM] | IC50 [2] [µM] | IC50 [3] [µM] | IC50 [4] [µM] | IC50 [5] [µM] | SMILES | IC50 ([1]; HCT-116, 72 h) [µM]
1 | < 15 | < 10 | < 10 | < 0.1 | < 1 | O=C(Nc1scnc1-c1nc2ccccc2[nH]1)c1c(F)cccc1F [Example 1, N-[4-(1H-benzoimidazol-2-yl)-thiazol-5-yl]-2,6-difluoro-benzamide] | 
2 | < 1 | < 10 | < 10 |  |  | O=C(Nc1scnc1-c1nc2ccc(CN3CCOCC3)cc2[nH]1)c1c(F)cccc1F [Example 2, 2,6-difluoro-N-[4-(6-morpholin-4ylmethyl-1H-benzoimidazol-2-yl)-thiazol-5-yl]benzamide] | 

Row | SMILES | IC50 ([1]; HCT-116, 72 hours, Alamar Blue) [µM] | IC50 [2] [µM] | IC50 [3] [µM] | IC50 [4] [µM] | IC50 [5] [µM] | IC50 ([1]; HCT-116, 72 h) [µM]
3 | O=C(Nc1csnc1-c1nc2cc(CN3CCOCC3)ccc2[nH]1)c1c(F)cccc1F [Example 3, 2,6-difluoro-N-[3-(5-morpholin-4-ylmethyl-1H-benzoimidazol-2-yl)-isothiazol-4-yl]-benzamide] |  | < 10 |  |  |  | < 15
